Reference: patent US8894927B2, “Shower sterilisation system and method of use thereof” (Omnia-Klenz Ltd., priority 2010, dated 2014)

How the values were obtained:
[1] = system: yeast and mold counts of shower water; assay: Hadfield office shower head, Petrifilm yeast and mold count after biocide treatment; conditions: 0.05% solution, 5 ppm, 30 min contact
[2] = system: aerobic counts of shower water; assay: Hadfield office shower head, Petrifilm aerobic count after biocide treatment; conditions: 5 ppm; for Mb. Analyses Aerobic: 0.05% solution, 30 min contact
[3] = 24 hours after biocide addition, (1) Resting, 18 °C
[4] = 24 hours after biocide addition, (2) Shower running, 10 °C
[5] = 24 hours after biocide addition, (3) Shower running, 15 °C
[6] = 24 hours after biocide addition, (4) Shower running, 20 °C
[7] = 24 hours after biocide addition, (5) Shower running, 25 °C
[8] = 24 hours after biocide addition, (6) Shower running, 30 °C
[9] = 24 hours after biocide addition, (7) Shower running, 35 °C
[10] = 24 hours after biocide addition, (8) Shower running, 40 °C
[11] = 24 hours after biocide addition, (9) Shower running - full heat, 43 °C
[12] = 48 hours after biocide addition, (1) Resting, 17 °C
[13] = 48 hours after biocide addition, (2) Shower running, 10 °C
[14] = 48 hours after biocide addition, (3) Shower running, 15 °C
[15] = 48 hours after biocide addition, (4) Shower running, 20 °C
[16] = 48 hours after biocide addition, (5) Shower running, 25 °C
[17] = 48 hours after biocide addition, (6) Shower running, 30 °C
[18] = 48 hours after biocide addition, (7) Shower running, 35 °C
[19] = 48 hours after biocide addition, (8) Shower running, 40 °C
[20] = 48 hours after biocide addition, (9) Shower running - full heat, 42 °C

`CC1(C)C(=O)N(Cl)C(=O)N1Br` [Omnia-Stat SP, 1-Bromo-3-chloro-5,5-dimethylhydantoin, reference compound] was tested, and the “Mb. Analyses Yeast/Mold” value [1, 3] was “No growth”, the “Mb. Analyses Yeast/Mold” value [1, 4] was “No growth” and the “Mb. Analyses Yeast/Mold” value [1, 5] was “No growth”. The “Mb. Analyses Yeast/Mold” value [1, 6] was 4 yeast cols/ml, the “Mb. Analyses Yeast/Mold” value [1, 7] was 7 yeast cols/ml and the “Mb. Analyses Yeast/Mold” value [1, 8] was 3 yeast cols/ml. The “Mb. Analyses Yeast/Mold” value [1, 9] was 5 yeast cols/ml, the “Mb. Analyses Yeast/Mold” value [1, 10] was “No growth” and the “Mb. Analyses Yeast/Mold” value [1, 11] was “No growth”. For the same compound, the “Mb. Analyses Yeast/Mold” value [1, 12] was 9 yeast cols/ml, the “Mb. Analyses Yeast/Mold” value [1, 13] was 8 yeast cols/ml and the “Mb. Analyses Yeast/Mold” value [1, 14] was 6 yeast cols/ml. For the same compound, the “Mb. Analyses Yeast/Mold” value [1, 15] was 19 yeast cols/ml, the “Mb. Analyses Yeast/Mold” value [1, 16] was “No growth” and the “Mb. Analyses Yeast/Mold” value [1, 17] was 6 yeast cols/ml. The “Mb. Analyses Yeast/Mold” value [1, 18] was “No growth”, the “Mb. Analyses Yeast/Mold” value [1, 19] was 10 yeast cols/ml and the “Mb. Analyses Yeast/Mold” value [1, 20] was 5 yeast cols/ml. The “Mb. Analyses Aerobic” value [2, 3] was 480 cols/ml, the “Mb. Analyses Aerobic” value [2, 4] was “No growth” and the “Mb. Analyses Aerobic” value [2, 5] was 1 cols/ml. For the same compound, the “Mb. Analyses Aerobic” value [2, 6] was 5 cols/ml, the “Mb. Analyses Aerobic” value [2, 7] was 10 cols/ml and the “Mb. Analyses Aerobic” value [2, 8] was 5 cols/ml. For the same compound, the “Mb. Analyses Aerobic” value [2, 9] was 6 cols/ml, the “Mb. Analyses Aerobic” value [2, 10] was “No growth” and the “Mb. Analyses Aerobic” value [2, 11] was “No growth”. For the same compound, the “Mb. Analyses Aerobic” value [2, 12] was 2600 cols/ml, the “Mb. Analyses Aerobic” value [2, 13] was 3 cols/ml and the “Mb. Analyses Aerobic” value [2, 14] was 3 cols/ml. The “Mb. Analyses Aerobic” value [2, 15] was 5 cols/ml, the “Mb. Analyses Aerobic” value [2, 16] was 9 cols/ml and the “Mb. Analyses Aerobic” value [2, 17] was 2 cols/ml. The “Mb. Analyses Aerobic” value [2, 18] was 10 cols/ml, the “Mb. Analyses Aerobic” value [2, 19] was 6 cols/ml and the “Mb. Analyses Aerobic” value [2, 20] was “No growth”. For the same compound, the “microbiological recovery after two days compared with the basic product (Table 3)” value ([2]; shower after 19 days resting) was “considerably greater”.
